Patent US20110214196A1, “DEVELOPMENT OF HERBICIDE-RESISTANT GRASS SPECIES” (University of Georgia Research Foundation, priority 2008, published 2011)

How the values were obtained:
[1] = system: Large crabgrass (Digitaria sanguinalis); assay: Large crabgrass dose response study, plants from sod farm seed; format: in vivo; conditions: for resistance or susceptibility of this population of large crabgrass: conclusion from ED50 values; for effective dose required to cause 50% injury (ED50): large crabgrass grown from sod farm seed, treated when 3-5 cm tall
Experimental: (§1) Plants were grown from seed collected from a turfgrass sod farm near where sethoxydim had been continuously used for twelve years. Seeds were planted in 250 mL styrofoam cups with a potting mixture of pure sand in a glasshouse with supplemental lighting (300 uE/m2/s) and 30/25 temperature. Plants were watered once daily and fertilized once a week. Large crabgrass plants were treated with herbicides when 3-5 cm tall in a dose response study. Four herbicides (sethoxydim, fluazifop, clethodim, and pinoxaden) were applied at […]. Plant injury was observed 7 and 14 DAT. The experimental design consisted of a randomized complete block design with three replications. The experiment was replicated in time.

[2] = system: Large crabgrass (Digitaria sanguinalis) F2; assay: Large crabgrass dose response study, F2 from self-pollinated surviving plants; format: in vivo
Experimental: as §1
In response to all four herbicides, the plants initially illutrated typical ACCase symptomology, but recovered in 7-14 days after treatment (DAT). […] Seeds from self-pollinated surviving large crabgrass plants were collected and analyzed using the same dose response design as state before. […] The ED50 was approximately 10 times greater for the resistant (R) population than that for the wild type (S) population.

Compound | resistance or susceptibility of this population of large crabgrass [1] | effective dose required to cause 50% injury (ED50) [1] | effective dose required to cause 50% injury (ED50) [2]
CCc1cc(C)cc(CC)c1-c1c(OC(=O)C(C)(C)C)n2n(c1=O)CCOCC2 [pinoxaden] | resistant | 168±29 g ai/ha | 131±44 g ai/ha
CCSC(C)CC1CC(=O)C(/C(CC)=N/OC/C=C/Cl)=C(O)C1 (racemic) [clethodim, (E,E)-(±)-2-[1-[[(3-chloro-2-propenyl)oxy]imino]propyl]-5-[2-(ethylthio)propyl]-3-hydroxy-2-cyclohexen-1-one] | susceptible | 51±4 g ai/ha | 28±22 g ai/ha
